Literature values as cited in patent publication US20240350591A1, “COMPOSITION AND METHODS OF TREATMENT USING […]-ENHANCED SUPPLEMENTATION” (Xygenyx Inc., priority 2023, published 2024).
Non-standard residues stand in square brackets, D forms with d. Residues, ends and D or L forms follow the SMILES beside them. ξ: configuration not given here. Cit = NC(=O)NCCC[C@H](N)C(=O)O; Ile(3ξ) = CCC(C)[C@H](N)C(=O)O

Experiments:
[1] = patients who did not respond to traditional antidepressant medications
[2] = transdermal route
[3] = test system: wide dynamic range neurons in the ventroposterolateral nucleus of the thalamus; conditions: in vivo
skin [4] = conditions: topical, concentrations 0.5-5%
skin [5] = conditions: topical formulations, within four weeks of treatment
[6] = compared to α-tocopherol = 1.0
F2-isoprostane = conditions: large doses of 1600-3200 IU/day
[7] = not given; remark: listed apart in the source
[8] = dietary intake in equal portions
markers of inflammation = conditions: individuals with metabolic syndrome
[9] = in vivo

CN1c2c([nH]c(N)nc2=O)NCC1CNc1ccc(C(=O)N[C@@H](CCC(=O)O)C(=O)O)cc1 (some centres unmarked) [5-MTHF, 5-methyltetrahydrofolate]
symptoms of depression [1]: improved

CC(C)[C@@H]1CC[C@@H](C)C[C@H]1O [Menthol]
factor of increase of drug uptake [2]: ≥ 10

CCCCCc1cc(O)c2c(c1)OC(C)(C)C1CCC(C)=CC21 (centres unmarked) [THC, Δ-9-tetrahydrocannabinol]
power in mediating pain relative to morphine [3]: ten times

C=CCCCCCCCCC(=O)N[C@@H](Cc1ccccc1)C(=O)O [UP, Undecylenoyl phenylalanine]
time of treatment to skin lightening effects (skin [4]): ≥ 7 days

CC12CCC(CC1)C(C)(C)O2 [eucalyptol, 1,8-epoxy-p-menthane]
factor of increase of drug uptake [2]: more than 10

CCC(C)[C@H](NC(=O)[C@H](CC(=O)O)NC(=O)[C@@H](N)CCCCN)C(=O)N[C@@H](CCCNC(N)=O)C(N)=O (some centres unmarked) [tripeptide-10 citrulline, Tripeptide-10 citrulline] (H-KD[Ile(3ξ)][Cit]-NH2)
improvement of suppleness (skin [5]): ≤ 54%

Cc1c(C)c2c(c(C)c1O)CC[C@@](C)(CCC[C@H](C)CCC[C@H](C)CCCC(C)C)O2 [α-tocopherol]
relative biological activity [6]: 1.0 | reduction of risk of coronary disease (dietary supplementation, doses up to 400 IU/day): up to 34% | reduction of risk of developing neurodegenerative diseases (Alzheimer's Syndrome or dementia) (dietary supplementation, doses up to 400 IU/day, controlled trials): ≤ 24% | reduction in the development of age-related cataracts (in combination with 10-20 mg β-carotene and 400-500 mg vitamin C, doses around 400-500 IU): 23% | blood plasma concentration of F2-isoprostane (F2-isoprostane): significantly lower

C=C1CC/C=C(\C)CC[C@@H]2[C@@H]1CC2(C)C [β-caryophyllene]
increases of protein carbonyl groups and myeloperoxidase activity in the liver and plasma ([7]; arthritic subjects): eliminated | number of circulating and articular leukocytes ([7]; rheumatoid arthritis): reduced | swelling of joints and lymph nodes ([7]; rheumatoid arthritis): reduced

Cc1cc(O)c(C)c2c1O[C@](C)(CCC[C@H](C)CCC[C@H](C)CCCC(C)C)CC2 [β-tocopherol]
relative biological activity [6]: 0.5

Cc1c(O)cc2c(c1C)O[C@](C)(CCC[C@H](C)CCC[C@H](C)CCCC(C)C)CC2 [γ-tocopherol]
relative biological activity [6]: 0.1 | concentration in vivo relative to α-tocopherol [8]: roughly 10%

Cc1cc(O)cc2c1O[C@](C)(CCC[C@H](C)CCC[C@H](C)CCCC(C)C)CC2 [δ-tocopherol]
relative biological activity [6]: 0.03 | markers of inflammation in the blood (markers of inflammation): reduced

HGH: hormone comprising a peptide chain that is synthesized in the pituitary gland
biological half-life [9]: 10-20 minutes
